Results reported in patent US20150105252A1, “SUBSTITUTED PYRAZOLES AS HERBICIDES” (E I DU PONT DE NEMOURS AND COMPANY, priority 2013, published 2015).

What was measured:
pigweed [1] = assay: Test A preemergence; type: in vivo, Amaranthus retroflexus; conditions: preemergence; for Pigweed plant response rating (0 to 100 scale): 125 g ai/ha, visual injury approx. 10 days after treatment
Outline: (§1)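 After sowing in a sand–loam mix, pots received compound preemergence by directed soil spray, or postemergence once plants reached the one- to two-leaf stage (2–10 cm). Formulation contained surfactant in a non-phytotoxic solvent. Injury was scored visually after ~10 greenhouse days, 0–100 scale.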

velvetleaf = assay: Test A preemergence; type: in vivo, Abutilon theophrasti; conditions: preemergence; for Velvetleaf plant response rating (0 to 100 scale): 125 g ai/ha, visual injury approx. 10 days after treatment
Outline: as §1

barnyardgrass = assay: Test B flood; type: in vivo, Echinochloa crus-galli; conditions: 250 g ai/ha, visual rating on 0 to 100 scale (0 no effect, 100 complete control), 13 to 15 days
Outline: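 2-leaf plants; pots flooded 3 cm over soil; compound added to paddy water, depth kept constant. Greenhouse 13–15 d. Visual rating vs controls, 0–100 scale (100 = complete control); dash = no result.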

ryegrass, Italian = assay: Test C preemergence; type: in vivo, Lolium multiflorum
Outline: (§2)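 Pre- and postemergence greenhouse screen; vehicle was a non-phytotoxic solvent mix with surfactant. Preemergence: treatment applied right after sowing into loam and sand. Postemergence: treated at 1–4 leaves. Visual rating at 13–15 days, 100 = complete control.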

wheat [2] = assay: Test C preemergence; type: in vivo, Triticum aestivum
Outline: as §2

galium = assay: Test C preemergence; type: in vivo, Galium aparine
Outline: as §2

oilseed rape = assay: Test C preemergence; type: in vivo, Brassica napus
Outline: as §2

wheat [3] = assay: Test C postemergence; type: in vivo, Triticum aestivum; conditions: postemergence
Source text: (§3) Seeds of plant species selected from blackgrass (Alopecurus myosuroides), ryegrass, Italian (Italian ryegrass, Lolium multiflorum), wheat (winter wheat, Triticum aestivum), galium (catchweed bedstraw, Galium aparine), corn (Zea mays), crabgrass, large (large crabgrass, Digitaria sanguinalis), foxtail, giant (giant foxtail, Setaria faberii), johnsongrass (Sorghum halepense), lambsquarters (Chenopodium album), morningglory (Ipomoea coccinea), nutsedge, yellow (yellow nutsedge, Cyperus esculentus), pigweed (redroot pigweed, Amaranthus retroflexus), ragweed (common ragweed, Ambrosia elation), soybean (Glycine max), barnyardgrass (Echinochloa crus-galli), oilseed rape (Brassica napus), waterhemp (common waterhemp, Amaranthus rudis), oat, wild (wild oat, Avena fatua), kochia (Kochia scoparia), Surinam grass (Brachiaria decumbens), foxtail, green (green foxtail, Setaria viridis), goosegrass (Eleusine indica), bromegrass, downy (downy bromegrass, Bromus tectorum), nightshade (eastern black nightshade, Solanum ptycanthum), cocklebur (common cocklebur, Xanthium strumarium), cupgrass, woolly (woolly cupgrass, Eriochloa villosa), bermudagrass (Cynodon dactylon), sunflower, (common oilseed sunflower, Helianthus annuus), Russian thistle (Salsola kali), and velvetleaf (Abutilon theophrasti) were planted into a blend of loam soil and sand and treated preemergence with test chemicals formulated in a non-phytotoxic solvent mixture which included a surfactant.
(§4) At the same time, plants selected from these crop and weed species and also chickweed (common chickweed, Stellaria media), canarygrass (littleseed canarygrass, Phalaris minor), and deadnettle (henbit deadnettle, Lamium amplexicaule), were planted in pots containing Redi-Earth® planting medium (Scotts Company, 14111 Scottslawn Road, Marysville, Ohio 43041) comprising spaghnum peat moss, vermiculite, wetting agent and starter nutrients and treated with postemergence applications of test chemicals formulated in the same manner. Plants ranged in height from 2 to 18 cm (1- to 4-leaf stage) for postemergence treatments. Treated plants and controls were maintained in a greenhouse for 13 to 15 days, after which time all species were compared to controls and visually evaluated. Plant response ratings, summarized in Table C, are based on a scale of 0 to 100 where 0 is no effect and 100 is complete control. A dash (-) response means no test result.

corn = assay: Test C postemergence; type: in vivo, Zea mays
Source text: as §3, §4

johnsongrass = assay: Test C postemergence; type: in vivo, Sorghum halepense
Source text: as §3, §4

pigweed [4] = assay: Test C postemergence; type: in vivo, Amaranthus retroflexus; conditions: postemergence
Source text: as §3, §4

ragweed = assay: Test C postemergence; type: in vivo, Ambrosia elation; conditions: postemergence
Source text: as §3, §4

soybean = assay: Test C postemergence; type: in vivo, Glycine max; conditions: postemergence
Source text: as §3, §4

chickweed = assay: Test C postemergence; type: in vivo, Stellaria media
Source text: as §3, §4

[5] = 500 g ai/ha, visual injury after approx. 10 days, 0 to 100 scale (0 no effect, 100 complete control)
[6] = preemergence, 31 g ai/ha, visual rating, scale 0 to 100 (0 no effect, 100 complete control), 13 to 15 days
[7] = preemergence, 62 g ai/ha, scale 0 to 100 (0 no effect, 100 complete control), 13 to 15 days
[8] = preemergence, 125 g ai/ha, 13 to 15 days, scale 0 to 100, 0 = no effect, 100 = complete control
[9] = preemergence, 250 g ai/ha, scale 0 to 100, 0 is no effect, 100 is complete control
[10] = 250 g ai/ha, scale 0 to 100 (0 no effect, 100 complete control)
[11] = Postemergence, 31 g ai/ha, visually evaluated after 13 to 15 days
[12] = postemergence, 62 g ai/ha, scale 0 to 100
[13] = postemergence, 250 g ai/ha, scale 0 to 100 (0 no effect, 100 complete control)
[14] = postemergence, 125 g ai/ha, scale 0 to 100, 0 no effect, 100 complete control
[15] = 125 g ai/ha, scale 0 to 100, 0 no effect, 100 complete control
[16] = Preemergence, rate head not shown (block before 16 g ai/ha), scale 0 to 100

CCONC(=O)c1cc(OCC)n(Cc2ccnc(C(F)(F)F)c2)n1 [Compound 195]
Pigweed plant response rating (0 to 100 scale) (pigweed [1]): 100 | Pigweed plant response rating (pigweed [1]; [5]): 100 | Velvetleaf plant response rating (0 to 100 scale) (velvetleaf): 80 | Velvetleaf plant response rating (velvetleaf; [5]): 100 | Plant response rating, Barnyardgrass (barnyardgrass): 10 | Ryegrass, Italian plant response rating (ryegrass, Italian; [6]): 10 | Ryegrass, Italian plant response rating (ryegrass, Italian; [7]): 60 | Plant response rating, Ryegrass, Italian (ryegrass, Italian; [8]): 90 | Ryegrass, Italian plant response rating (ryegrass, Italian; [9]): 90 | Wheat plant response rating (wheat [2]; [6]): 0 | Wheat plant response rating (wheat [2]; [7]): 45 | Plant response rating, Wheat (wheat [2]; [8]): 85 | Wheat plant response rating (wheat [2]; [9]): 90 | Galium plant response rating (galium; [6]): 0 | Galium plant response rating (galium; [7]): 85 | Plant response rating, Galium (galium; [8]): 95 | Galium plant response rating (galium; [9]): 100 | Oilseed Rape plant response rating (oilseed rape; [6]): 30 | Oilseed Rape plant response rating (oilseed rape; [7]): 85 | Plant response rating, Oilseed Rape (oilseed rape; [8]): 95 | Oilseed Rape plant response rating (oilseed rape; [9]): 98

CCc1cc(C(=O)NCC(F)(F)F)nn1Cc1cc(OC(F)F)nn1C [Compound 206]
Pigweed plant response rating (0 to 100 scale) (pigweed [1]): 90 | Plant response rating, Barnyardgrass (barnyardgrass): 0 | Plant response rating, Wheat (wheat [3]; [10]): 0 | Wheat plant response rating (wheat [3]; scale 0 to 100): 0 | Plant response rating (scale of 0 to 100 where 0 is no effect and 100 is complete control), Corn (corn; [11]): 5 | Corn plant response rating (corn; [12]): 5 | Plant response rating, Corn (corn; [13]): 5 | Plant response rating, Corn (corn; [14]): 5 | Plant response rating (scale of 0 to 100 where 0 is no effect and 100 is complete control), Johnsongrass (johnsongrass; [11]): 0 | Johnsongrass plant response rating (johnsongrass; [12]): 0 | Plant response rating, Johnsongrass (johnsongrass; [13]): 5 | Plant response rating, Johnsongrass (johnsongrass; [14]): 5 | Pigweed plant response rating (pigweed [4]; 62 g ai/ha, scale 0 to 100): 25 | Plant response rating, Pigweed (pigweed [4]; [10]): 40 | Plant response rating, Pigweed (pigweed [4]; [15]): 40 | Plant response rating, Ragweed (ragweed; [10]): 20 | Plant response rating, Ragweed (ragweed; [15]): 35 | Plant response rating, Soybean (soybean; [10]): 35 | Soybean plant response rating (soybean; [15]): 45 | Plant response rating (scale of 0 to 100 where 0 is no effect and 100 is complete control), Chickweed (chickweed; [11]): 5 | Chickweed plant response rating (chickweed; [12]): 5 | Plant response rating, Chickweed (chickweed; [13]): 75 | Plant response rating, Chickweed (chickweed; [14]): 5

CCc1cc(C(=O)NC2CC2)nn1Cc1cc(C(F)(F)C(F)(F)F)nn1C [Compound 226]
Pigweed plant response rating (0 to 100 scale) (pigweed [1]): 100 | Velvetleaf plant response rating (0 to 100 scale) (velvetleaf): 60 | Plant response rating, Barnyardgrass (barnyardgrass): 50 | Plant response rating, Ryegrass, Italian (ryegrass, Italian; [16]): 0 | Ryegrass, Italian plant response rating (ryegrass, Italian; [7]): 5 | Plant response rating, Ryegrass, Italian (ryegrass, Italian; [8]): 35 | Ryegrass, Italian plant response rating (ryegrass, Italian; [9]): 80 | Plant response rating, Wheat (wheat [2]; [16]): 15 | Wheat plant response rating (wheat [2]; [7]): 0 | Plant response rating, Wheat (wheat [2]; [8]): 0 | Wheat plant response rating (wheat [2]; [9]): 10 | Plant response rating, Galium (galium; [16]): 0 | Galium plant response rating (galium; [7]): 90 | Plant response rating, Galium (galium; [8]): 80 | Galium plant response rating (galium; [9]): 90 | Plant response rating, Oilseed Rape (oilseed rape; [16]): 30 | Oilseed Rape plant response rating (oilseed rape; [7]): 85 | Plant response rating, Oilseed Rape (oilseed rape; [8]): 100 | Oilseed Rape plant response rating (oilseed rape; [9]): 95
